Measured values as given in patent US12318361B2, “Methods for treating cardiovascular diseases” (Olatec Therapeutics LLC, priority 2017, dated 2025).

System: male CD-1 mice, experimental AMI
Experiment: Experimental mouse AMI model (30 min ischemia, 24 h reperfusion), dose response and delayed dosing, Example 9
Format: in vivo
Conditions: for Infarct size, Change (%) relative to saline group / Infarct size, mean: 24 h; for AWDT, mean / AWST, mean / LVEDD, mean / LVEF, mean / LVESD, mean / LVFS, mean / PWDT, mean / PWST, mean: echo at 24 h
Procedure: Objectives: To determine the efficacy of, (1) a single dose of OLT1177™ (6, 60 and 600 mg/kg) administered at the time of reperfusion (Part A) and, (2) a single dose of 60 mg/kg OLT1177™ administered 60, 120 or 180 minutes after reperfusion in an experimental mouse AMI model.
Methodology: Male CD-1 mice underwent transient surgical ligation of the left coronary artery for 30 minutes followed by reperfusion for 24 hours. A single dose of OLT1177™ (6, 60, or 600 mg/kg) or matching vehicle was administered intraperitoneally (IP) at time of reperfusion (N=5-9/group, Study Part A) or OLT1177™ (60 mg/kg) after a 60-, 120- or 180-minute delay (N=4-7/group, Study Part B). Echocardiography was performed to measure left ventricular (LV) fractional shortening (FS). Infarct size was measured at pathology by triphenyl-tetrazolium-chloride (TTC) and phthalo blue staining and expressed as a percentage of the myocardium at risk.
For the 60-mg/kg dose, OLT1177™ (13 mg/vial) was diluted in 0.65 ml of 0.9% of normal saline solution to reach a concentration of 20 mg/ml. For the 6 mg/kg dose, the 20 mg/ml dose was diluted 10 times (0.1 ml OLT1177™ […]+0.9 ml 0.9% normal saline) to reach a final concentration of 2 mg/ml. For the 600 mg/kg dose, each vial of OLT1177™ (13 mg/vial) was diluted with 0.1 ml of saline, to reach a final concentration of 130 mg/ml. The content of multiple vials was combined. Each respective tube was subjected to a vortex and heating at 37° C. until complete dissolution of the drug substance.
Male mice were dosed with OLT1177™ by the intraperitoneal route at dose levels of 6, 60, or 600 mg/kg (each approximately 33 g mouse received 100 μl of the dosing solution; 150 μl for the higher dose) after the reperfusion was confirmed (Study Part A). In Part B, 60 mg/kg OLT1177™ was injected (100 μl of the dosing solution per mouse) with a delay of 60, 120 or 180 minutes from the time of reperfusion.
Adult out-bred male CD1 mice (8-10 weeks of age) were supplied by Envigo (Indianapolis, IN). A single operator performed all surgeries. Experimental AMI was induced by transient coronary artery ligation for 30 minutes to induce ischemia of the anterior wall and the apex (visible as pallor) followed by reperfusion, and leading to an infarct involving approximately 15% of the left ventricle. Mice were deeply sedated with sodium pentobarbital (70 mg/kg), intubated using a 23 G catheter and placed in the right lateral decubitus. The mice were shaved and the skin was cleaned with povidone solution and isopropyl alcohol. The mice were then connected to a ventilator and a left thoracotomy was performed followed by pericardiectomy and ligation of the proximal left coronary artery. A 1-mm diameter polyethylene tube was inserted inside the ligature knot, secured and left in place to obstruct the coronary flow for 30 minutes. At the end of the ischemic time, the tube was removed and the coronary flow re-establishment was observed. At this time, OLT1177™ at a dose of 6, 60 or 600 mg/kg, or the normal saline (0.9% NaCl) used as vehicle (0.1 ml of total volume) was injected into the peritoneal cavity after the reperfusion was confirmed (Part A). After closure of the thoracic access, the mice were left to recover for 24 hours. Pain management was achieved using buprenorphine (Buprenorphine SR™ Lab, 0.5 mg/kg) injected subcutaneously. For Study Part B, groups of mice were injected with 60 mg/kg of OLT1177™ after 60, 120 or 180 minutes from the moment of reperfusion.
Before sacrifice (24 hours after reperfusion), the mice underwent transthoracic echocardiography under mild anesthesia with sodium pentobarbital (50 mg/kg). Echocardiography was performed with the Vevo770 Imaging System (VisualSonics Inc, Toronto, Ontario, Canada) and a 30 MHz probe. The heart was visualized in B-mode from the parasternal short axis and apical views. The left ventricular (LV) end-diastolic diameter (LVEDD) and LV end-systolic diameters (LVESD) at M-Mode were measured. […]

[1] = 6 mg/kg IP at time of reperfusion (Group 2)
[2] = 60 mg/kg IP administered at 60 minutes (Group 5)
[3] = 60 mg/kg IP administered at 120 minutes (Group 6)
[4] = 60 mg/kg IP at time of reperfusion (Group 3)
[5] = 60 mg/kg IP, Group 7 (N = 4), head prints Administered at 120 Minutes
[6] = 60 mg/kg IP, treatment delay of 60 or 120 minutes, p<0.01
[7] = 600 mg/kg IP at time of reperfusion (Group 4)
[8] = all doses (6, 60, 600 mg/kg) at reperfusion, 24 h after reperfusion, p<0.05

With `CS(=O)(=O)CCC#N` [OLT1177™, 3-methanesulfonyl-propionitrile] the “Infarct size, Change (%) relative to saline group” value [1] was −36%, the “AWDT, mean” value [1] was 0.79 mm and the “AWST, mean” value [1] was 1.10 mm. The “LVEDD, mean” value [1] was 3.71 mm, the “LVEF, mean” value [1] was 61.4% and the “LVESD, mean” value [1] was 2.52 mm. For the same compound, the “LVFS, mean” value [1] was 32.2%, the “PWDT, mean” value [1] was 0.86 mm and the “PWST, mean” value [1] was 1.12 mm. The “Infarct size, mean” value (6 mg/kg IP single dose at time of reperfusion (Group 2)) was 9.9%, the “infarct size (in words)” value (60 mg/kg IP administered 120 or 180 minutes after reperfusion) was “not significantly altered” and the “AWDT, mean” value [2] was 0.85 mm. The “AWST, mean” value [2] was 1.18 mm, the “LVEDD, mean” value [2] was 4.00 mm and the “LVEF, mean” value [2] was 65.3%. For the same compound, the “LVESD, mean” value [2] was 2.59 mm, the “LVFS, mean” value [2] was 35.5% and the “PWDT, mean” value [2] was 0.89 mm. For the same compound, the “PWST, mean” value [2] was 1.33 mm, the “Infarct size, mean” value (60 mg/kg IP administered at 60 minutes after reperfusion (Group 5)) was 4.4% and the “AWDT, mean” value [3] was 0.83 mm. For the same compound, the “AWST, mean” value [3] was 1.20 mm, the “LVEDD, mean” value [3] was 4.07 mm and the “LVEF, mean” value [3] was 63.6%. For the same compound, the “LVESD, mean” value [3] was 2.68 mm, the “LVFS, mean” value [3] was 34.1% and the “PWDT, mean” value [3] was 0.87 mm. The “PWST, mean” value [3] was 1.26 mm, the “Infarct size, mean” value (60 mg/kg IP administered at 120 minutes after reperfusion (Group 6)) was 11.1% and the “Infarct size, mean” value (60 mg/kg IP administered at 180 minutes after reperfusion (Group 7)) was 15.4%. The “reducing infarct size and preserving LV function, compared with treatment given with no delay” value (60 mg/kg IP after a 60 minutes delay after reperfusion) was “equally effective”, the “Infarct size, Change (%) relative to saline group” value [4] was −67% and the “AWDT, mean” value [4] was 0.82 mm. For the same compound, the “AWST, mean” value [4] was 1.25 mm, the “LVEDD, mean” value [4] was 4.25 mm and the “LVEF, mean” value [4] was 59.3%. For the same compound, the “LVESD, mean” value [4] was 2.93 mm, the “LVFS, mean” value [4] was 31.0% and the “PWDT, mean” value [4] was 0.86 mm. For the same compound, the “PWST, mean” value [4] was 1.24 mm, the “Infarct size, mean” value (60 mg/kg IP single dose at time of reperfusion (Group 3)) was 5.1% and the “AWDT, mean” value [5] was 0.95 mm. The “AWST, mean” value [5] was 1.22 mm, the “LVEDD, mean” value [5] was 3.88 mm and the “LVEF, mean” value [5] was 51.5%. The “LVESD, mean” value [5] was 2.87 mm, the “LVFS, mean” value [5] was 26.0% and the “PWDT, mean” value [5] was 0.94 mm. The “PWST, mean” value [5] was 1.31 mm, the “LV ejection fraction in comparison to vehicle-treated mice (in words)” value [6] was “significantly improved” and the “LV fractional shortening in comparison to vehicle-treated mice (in words)” value [6] was “significantly improved”. For the same compound, the “drop in fractional shortening (in words)” value (60 mg/kg IP, treatment delay of 180 minutes) was “failed to prevent the drop”, the “Infarct size, Change (%) relative to saline group” value [7] was −61% and the “AWDT, mean” value [7] was 0.77 mm. For the same compound, the “AWST, mean” value [7] was 1.06 mm, the “LVEDD, mean” value [7] was 3.76 mm and the “LVEF, mean” value [7] was 61.6%. The “LVESD, mean” value [7] was 2.54 mm, the “LVFS, mean” value [7] was 33.0% and the “PWDT, mean” value [7] was 0.83 mm. For the same compound, the “PWST, mean” value [7] was 1.14 mm, the “Infarct size, mean” value (600 mg/kg IP single dose at time of reperfusion (Group 4)) was 6.0% and the “infarct size vs vehicle (in words)” value (6, 60 and 600 mg/kg single IP injection at time of reperfusion, p<0.001) was “significant reduction”. The “LV ejection fraction relative to vehicle control (in words)” value [8] was “significantly higher”, the “LV fractional shortening relative to vehicle control (in words)” value [8] was “significantly higher” and the “decrease in mean infarct size compared to the vehicle control” value (high dose 600 mg/kg IP at time of reperfusion) was “more than 60%”. The “decrease in infarct size compared to the vehicle control” value (low dose 6 mg/kg IP at time of reperfusion) was 36% and the “decrease in mean infarct size compared to the vehicle control” value (mid dose 60 mg/kg IP at time of reperfusion) was “more than 60%”.
